Measured values reported in article PMC11831560, “Development of the Pyrido[2,3-d]pyrimidin-7(8H)-one Scaffold toward Potent and Selective NUAK1 Inhibitors” (ACS Medicinal Chemistry Letters, 2025).

Legend:
Test in all cases: Kinase panel radiometric filter binding (33P-ATP)
Type in all cases: biochemical
Design in all cases: dose or concentration left out as unconfirmed
MEKK1 = MEKK1 (Homo sapiens, UniProt Q13233)
Description: (§1) Table S4: AMPKA kinase activity data (ADP-Glo assay)
(§2) Compound pIC50 (Fold selectivity
(§3) Table S5. Kinase selectivity screening for 9 and 24 at 1 µM against a general kinase panel of 140 targets
(§4) in radiometric filter binding assay using 33P-γ−ATP at the MRC PPU International Centre for Kinase
(§5) Profiling, University of Dundee. pIC50 values were determined for compounds with <20% activity
(§6) Kinase activity s.d. pIC50 activity s.d. pIC50

ERK1 = ERK1 (Homo sapiens, UniProt P27361)
Description: as §1, §2, §3, §4, §5, §6

TSSK1 = TSSK1 (Homo sapiens, UniProt Q9BXA7)
Description: as §1, §2, §3, §4, §5, §6

MLK3 = MLK3 (Homo sapiens, UniProt Q16584)
Description: as §1, §2, §3, §4, §5, §6

PAK5 = PAK5 (Homo sapiens, UniProt Q9P286)
Description: as §1, §2, §3, §4, §5, §6

PDK1 = PDK1 (Homo sapiens, UniProt O15530)
Description: as §1, §2, §3, §4, §5, §6

ERK8 = ERK8 (Homo sapiens, UniProt Q8TD08)
Description: as §1, §2, §3, §4, §5, §6

MNK2 = MNK2 (Homo sapiens, UniProt Q9HBH9)
Description: as §1, §2, §3, §4, §5, §6

GSK3b = GSK3b (Homo sapiens, UniProt P49841)
Description: as §1, §2, §3, §4, §5, §6

DYRK2 = DYRK2 (Homo sapiens, UniProt Q92630)
Description: as §1, §2, §3, §4, §5, §6

PAK6 = PAK6 (Homo sapiens, UniProt Q9NQU5)
Description: as §1, §2, §3, §4, §5, §6

PAK2 = PAK2 (Homo sapiens, UniProt Q13177)
Description: as §1, §2, §3, §4, §5, §6

TESK1 = TESK1 (Homo sapiens, UniProt Q15569)
Description: as §1, §2, §3, §4, §5, §6

MPSK1 = MPSK1 (Homo sapiens, UniProt O75716)
MPSK1, sequence (O75716 whole entry): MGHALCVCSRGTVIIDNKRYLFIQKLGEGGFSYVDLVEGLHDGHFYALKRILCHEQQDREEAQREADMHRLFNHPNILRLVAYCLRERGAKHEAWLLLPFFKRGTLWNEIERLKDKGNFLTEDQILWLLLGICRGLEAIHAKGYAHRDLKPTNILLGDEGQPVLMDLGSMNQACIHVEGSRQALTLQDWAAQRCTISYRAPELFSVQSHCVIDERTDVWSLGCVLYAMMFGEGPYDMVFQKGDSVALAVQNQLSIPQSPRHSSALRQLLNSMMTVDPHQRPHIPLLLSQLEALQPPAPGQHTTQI
Description: as §1, §2, §3, §4, §5, §6

p38d MAPK = p38d MAPK (Homo sapiens, UniProt O15264)
Description: as §1, §2, §3, §4, §5, §6

SRPK1 = SRPK1 (Homo sapiens, UniProt Q96SB4)
Description: as §1, §2, §3, §4, §5, §6

MAPKAP-K2 = MAPKAP-K2 (Homo sapiens, UniProt P49137)
Description: as §1, §2, §3, §4, §5, §6

p38a MAPK = p38a MAPK (Homo sapiens, UniProt Q16539)
Description: as §1, §2, §3, §4, §5, §6

AMPK (hum) = AMPK (hum) (Homo sapiens, UniProt Q13131)
AMPK (hum), sequence (Q13131 11-559 limits assumed): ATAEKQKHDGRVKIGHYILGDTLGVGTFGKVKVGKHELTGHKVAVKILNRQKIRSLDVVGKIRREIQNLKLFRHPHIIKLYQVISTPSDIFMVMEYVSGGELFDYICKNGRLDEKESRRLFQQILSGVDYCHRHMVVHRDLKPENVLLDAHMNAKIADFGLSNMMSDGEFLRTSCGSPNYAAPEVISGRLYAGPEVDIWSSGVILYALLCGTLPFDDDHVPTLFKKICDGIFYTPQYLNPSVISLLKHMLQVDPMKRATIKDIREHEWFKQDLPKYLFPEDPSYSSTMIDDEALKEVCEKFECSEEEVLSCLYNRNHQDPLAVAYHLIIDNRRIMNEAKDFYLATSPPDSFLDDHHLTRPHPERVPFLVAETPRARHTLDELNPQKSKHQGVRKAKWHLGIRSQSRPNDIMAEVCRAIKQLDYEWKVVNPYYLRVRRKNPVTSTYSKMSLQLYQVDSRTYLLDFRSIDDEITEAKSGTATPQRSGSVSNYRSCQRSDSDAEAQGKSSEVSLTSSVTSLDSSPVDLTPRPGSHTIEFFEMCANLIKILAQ
AMPK (hum), sequence (O43741 whole entry partner): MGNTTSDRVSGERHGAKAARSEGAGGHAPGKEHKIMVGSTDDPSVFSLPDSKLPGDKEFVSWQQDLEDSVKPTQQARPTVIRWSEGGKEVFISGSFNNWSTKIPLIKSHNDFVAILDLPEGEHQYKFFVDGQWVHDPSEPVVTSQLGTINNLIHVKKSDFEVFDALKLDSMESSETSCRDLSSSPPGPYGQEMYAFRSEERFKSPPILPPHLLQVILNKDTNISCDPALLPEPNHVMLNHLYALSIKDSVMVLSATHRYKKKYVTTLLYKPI
AMPK (hum), sequence (P54619 whole entry partner): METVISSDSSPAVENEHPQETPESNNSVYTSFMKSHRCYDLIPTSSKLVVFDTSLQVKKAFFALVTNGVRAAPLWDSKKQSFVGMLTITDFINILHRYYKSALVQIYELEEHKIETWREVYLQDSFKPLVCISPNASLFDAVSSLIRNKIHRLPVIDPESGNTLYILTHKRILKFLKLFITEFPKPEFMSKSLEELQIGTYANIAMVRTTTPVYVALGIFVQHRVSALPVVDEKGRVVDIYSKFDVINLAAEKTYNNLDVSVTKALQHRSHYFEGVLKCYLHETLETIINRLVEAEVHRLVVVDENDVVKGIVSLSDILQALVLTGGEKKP
Description: as §1, §2, §3, §4, §5, §6

FGF-R1 = FGF-R1 (Homo sapiens, UniProt P11362)
Description: as §1, §2, §3, §4, §5, §6

MLK1 = MLK1 (Homo sapiens, UniProt P80192)
Description: as §1, §2, §3, §4, §5, §6

IRR = IRR (Homo sapiens, UniProt P14616)
Description: as §1, §2, §3, §4, §5, §6

PKD1 = PKD1 (Homo sapiens, UniProt Q15139)
Description: as §1, §2, §3, §4, §5, §6

PIM2 = PIM2 (Homo sapiens, UniProt Q9P1W9)
Description: as §1, §2, §3, §4, §5, §6

EPH-B1 = EPH-B1 (Homo sapiens, UniProt P54762)
EPH-B1, sequence (P54762 18-984): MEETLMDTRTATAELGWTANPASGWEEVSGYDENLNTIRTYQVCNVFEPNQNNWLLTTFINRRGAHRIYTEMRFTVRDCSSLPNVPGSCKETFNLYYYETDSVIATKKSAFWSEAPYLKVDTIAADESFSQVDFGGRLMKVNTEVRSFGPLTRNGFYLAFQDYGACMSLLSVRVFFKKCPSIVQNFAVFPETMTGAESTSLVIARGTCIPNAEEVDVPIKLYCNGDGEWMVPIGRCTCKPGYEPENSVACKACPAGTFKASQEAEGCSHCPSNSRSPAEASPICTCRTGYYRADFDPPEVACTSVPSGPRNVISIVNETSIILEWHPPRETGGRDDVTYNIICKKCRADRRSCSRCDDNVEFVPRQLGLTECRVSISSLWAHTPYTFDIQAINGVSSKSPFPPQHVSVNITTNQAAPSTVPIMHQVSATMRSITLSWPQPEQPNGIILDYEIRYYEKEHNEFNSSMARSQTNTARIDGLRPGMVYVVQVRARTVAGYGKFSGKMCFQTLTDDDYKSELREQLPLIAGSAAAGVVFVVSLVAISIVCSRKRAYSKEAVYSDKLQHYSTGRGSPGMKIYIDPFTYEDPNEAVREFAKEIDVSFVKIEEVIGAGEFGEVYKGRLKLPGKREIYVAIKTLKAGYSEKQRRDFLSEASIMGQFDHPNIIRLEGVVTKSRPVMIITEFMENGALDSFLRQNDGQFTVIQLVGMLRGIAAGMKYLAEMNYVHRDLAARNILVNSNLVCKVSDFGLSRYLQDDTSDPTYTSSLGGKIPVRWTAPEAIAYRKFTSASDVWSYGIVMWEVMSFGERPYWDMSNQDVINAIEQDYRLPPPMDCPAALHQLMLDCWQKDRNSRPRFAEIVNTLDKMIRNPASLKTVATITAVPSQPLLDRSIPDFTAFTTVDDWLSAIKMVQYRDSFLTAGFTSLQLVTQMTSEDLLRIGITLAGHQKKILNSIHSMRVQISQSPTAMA
Description: as §1, §2, §3, §4, §5, §6

ERK2 = ERK2 (Homo sapiens, UniProt P28482)
Description: as §1, §2, §3, §4, §5, §6

IRAK4 = IRAK4 (Homo sapiens, UniProt Q9NWZ3)
Description: as §1, §2, §3, §4, §5, §6

p38b MAPK = p38b MAPK (Homo sapiens, UniProt Q15759)
Description: as §1, §2, §3, §4, §5, §6

EPH-B2 = EPH-B2 (Homo sapiens, UniProt P29323)
EPH-B2, sequence (P29323 19-1055): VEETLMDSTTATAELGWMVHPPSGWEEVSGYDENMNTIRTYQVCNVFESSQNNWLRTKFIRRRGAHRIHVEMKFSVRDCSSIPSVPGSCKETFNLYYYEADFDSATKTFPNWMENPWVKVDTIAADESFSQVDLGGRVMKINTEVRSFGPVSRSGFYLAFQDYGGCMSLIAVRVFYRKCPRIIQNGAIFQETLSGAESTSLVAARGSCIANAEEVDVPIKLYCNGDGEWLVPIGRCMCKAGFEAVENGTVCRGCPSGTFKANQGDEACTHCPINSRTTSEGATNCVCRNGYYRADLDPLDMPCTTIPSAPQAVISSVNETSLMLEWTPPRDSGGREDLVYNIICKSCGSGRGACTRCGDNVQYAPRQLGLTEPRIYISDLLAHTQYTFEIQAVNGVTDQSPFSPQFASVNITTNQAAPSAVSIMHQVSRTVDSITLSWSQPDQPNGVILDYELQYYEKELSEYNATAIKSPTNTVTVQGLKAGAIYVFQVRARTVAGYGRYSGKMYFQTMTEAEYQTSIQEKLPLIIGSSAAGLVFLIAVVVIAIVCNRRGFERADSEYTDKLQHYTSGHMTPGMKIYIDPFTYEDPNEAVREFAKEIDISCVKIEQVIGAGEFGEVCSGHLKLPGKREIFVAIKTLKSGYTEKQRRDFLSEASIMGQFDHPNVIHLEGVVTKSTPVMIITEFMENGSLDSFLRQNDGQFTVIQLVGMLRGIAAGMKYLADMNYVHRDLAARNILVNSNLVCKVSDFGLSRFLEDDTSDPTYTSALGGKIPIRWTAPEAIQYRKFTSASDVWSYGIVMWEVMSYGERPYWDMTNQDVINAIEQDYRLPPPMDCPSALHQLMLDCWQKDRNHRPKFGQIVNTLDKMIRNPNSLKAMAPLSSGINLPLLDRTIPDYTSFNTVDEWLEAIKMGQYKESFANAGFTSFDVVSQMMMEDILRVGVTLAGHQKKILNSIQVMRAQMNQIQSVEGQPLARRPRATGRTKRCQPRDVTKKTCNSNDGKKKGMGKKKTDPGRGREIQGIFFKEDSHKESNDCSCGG
Description: as §1, §2, §3, §4, §5, §6

PKCγ = PKCγ (Homo sapiens, UniProt P05129)
Description: as §1, §2, §3, §4, §5, §6

GCK = GCK (Homo sapiens, UniProt Q12851)
GCK, sequence (Q12851 whole entry): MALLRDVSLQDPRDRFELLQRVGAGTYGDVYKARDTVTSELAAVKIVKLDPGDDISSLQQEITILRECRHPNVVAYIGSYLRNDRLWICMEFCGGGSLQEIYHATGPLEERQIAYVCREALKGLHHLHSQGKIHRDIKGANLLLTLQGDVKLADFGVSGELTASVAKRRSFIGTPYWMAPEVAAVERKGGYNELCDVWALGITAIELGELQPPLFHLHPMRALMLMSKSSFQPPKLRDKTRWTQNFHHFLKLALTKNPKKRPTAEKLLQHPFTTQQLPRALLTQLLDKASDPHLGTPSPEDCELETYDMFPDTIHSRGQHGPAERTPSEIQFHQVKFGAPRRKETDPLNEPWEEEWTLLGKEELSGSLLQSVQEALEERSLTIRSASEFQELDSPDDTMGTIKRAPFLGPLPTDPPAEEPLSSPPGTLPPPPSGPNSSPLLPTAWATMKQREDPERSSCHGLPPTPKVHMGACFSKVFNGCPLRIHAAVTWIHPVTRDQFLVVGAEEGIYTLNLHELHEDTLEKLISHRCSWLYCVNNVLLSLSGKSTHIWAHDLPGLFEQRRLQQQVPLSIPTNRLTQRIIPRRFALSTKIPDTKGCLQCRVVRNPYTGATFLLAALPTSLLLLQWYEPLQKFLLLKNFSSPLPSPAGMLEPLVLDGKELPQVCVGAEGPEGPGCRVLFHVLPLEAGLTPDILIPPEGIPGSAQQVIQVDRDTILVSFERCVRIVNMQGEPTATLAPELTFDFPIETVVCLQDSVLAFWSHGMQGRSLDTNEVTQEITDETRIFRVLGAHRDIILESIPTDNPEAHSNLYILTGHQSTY
Description: as §1, §2, §3, §4, §5, §6

BTK = BTK (Homo sapiens, UniProt Q06187)
BTK, sequence (Q06187 whole entry): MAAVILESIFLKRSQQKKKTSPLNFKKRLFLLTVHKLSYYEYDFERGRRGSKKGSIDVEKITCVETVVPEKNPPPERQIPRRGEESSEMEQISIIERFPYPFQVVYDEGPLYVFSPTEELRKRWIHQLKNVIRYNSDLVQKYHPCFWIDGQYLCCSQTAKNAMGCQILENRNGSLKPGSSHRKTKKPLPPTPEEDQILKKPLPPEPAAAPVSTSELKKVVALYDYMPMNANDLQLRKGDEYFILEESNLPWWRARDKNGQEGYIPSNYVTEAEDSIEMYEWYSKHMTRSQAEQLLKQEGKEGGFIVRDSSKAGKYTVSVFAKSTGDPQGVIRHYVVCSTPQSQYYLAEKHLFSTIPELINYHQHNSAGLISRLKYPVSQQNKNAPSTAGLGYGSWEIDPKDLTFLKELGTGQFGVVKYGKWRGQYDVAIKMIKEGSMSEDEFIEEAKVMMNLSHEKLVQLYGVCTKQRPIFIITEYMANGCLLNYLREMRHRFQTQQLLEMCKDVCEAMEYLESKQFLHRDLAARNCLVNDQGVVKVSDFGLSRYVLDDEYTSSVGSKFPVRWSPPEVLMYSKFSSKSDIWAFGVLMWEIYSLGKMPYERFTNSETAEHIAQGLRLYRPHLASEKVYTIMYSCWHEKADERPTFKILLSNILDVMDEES
Description: as §1, §2, §3, §4, §5, §6

DAPK1 = DAPK1 (Homo sapiens, UniProt P53355)
Description: as §1, §2, §3, §4, §5, §6

CK2 = CK2 (Homo sapiens, UniProt P68400)
Description: as §1, §2, §3, §4, §5, §6

PKCa = PKCa (Homo sapiens, UniProt P17252)
Description: as §1, §2, §3, §4, §5, §6

| Compound | % activity remaining (MEKK1) [%] | % activity remaining (ERK1) [%] | % activity remaining (TSSK1) [%] | % activity remaining (MLK3) [%] | % activity remaining (PAK5) [%] | % activity remaining (PDK1) [%] | % activity remaining (ERK8) [%] | % activity remaining (MNK2) [%] | % activity remaining (GSK3b) [%] | % activity remaining (DYRK2) [%] | % activity remaining (PAK6) [%] | % activity remaining (PAK2) [%] | % activity remaining (TESK1) [%] | % activity remaining (MPSK1) [%] | % activity remaining (p38d MAPK) [%] | % activity remaining (SRPK1) [%] | % activity remaining (MAPKAP-K2) [%] | % activity remaining (p38a MAPK) [%] | % activity remaining (AMPK (hum)) [%] | % activity remaining (FGF-R1) [%] | also measured |
| --- | --- | --- | --- | --- | --- | --- | --- | --- | --- | --- | --- | --- | --- | --- | --- | --- | --- | --- | --- | --- | --- |
| CN1C2CC1CN(c1ccc(Nc3ncc4ccn(CC5CCOCC5)c4n3)cc1)C2 [Compound 24] | 63 | 98 | 77 | 91 | 99 | 95 | 76 | 89 | 69 | 103 | 118 | 107 | 94 | 76 | 110 | 79 | 95 | 93 | 81 | 81 | % activity remaining (MLK1): 33%; % activity remaining (IRR): 94%; % activity remaining (PKD1): 54%; % activity remaining (PIM2): 111%; % activity remaining (EPH-B1): 87%; % activity remaining (ERK2): 114%; % activity remaining (IRAK4): 71%; % activity remaining (p38b MAPK): 108%; % activity remaining (EPH-B2): 82%; % activity remaining (PKCγ): 81%; % activity remaining (GCK): 89%; % activity remaining (BTK): 82%; % activity remaining (DAPK1): 125%; % activity remaining (CK2): 96%; % activity remaining (PKCa): 96% |
| Cc1cc(=O)n(C2CCCC2)c2nc(Nc3ccc(N4CC5CC(C4)N5C)cc3)ncc12 [Compound 9] | 85 | 97 | 56 | 43 | 64 | 90 | 47 | 56 | 101 | 103 | 78 | 97 | 96 | 114 | 94 | 111 | 110 | 92 | 19 | 56 | % activity remaining (MLK1): 21%; % activity remaining (IRR): 70%; % activity remaining (PKD1): 20%; % activity remaining (PIM2): 99%; % activity remaining (EPH-B1): 51%; % activity remaining (ERK2): 93%; % activity remaining (IRAK4): 100%; % activity remaining (p38b MAPK): 91%; % activity remaining (EPH-B2): 60%; % activity remaining (PKCγ): 72%; % activity remaining (GCK): 76%; % activity remaining (BTK): 91%; % activity remaining (DAPK1): 60%; % activity remaining (CK2): 108%; % activity remaining (PKCa): 86% |
